Data from ChEMBL document CHEMBL1909046, “DrugMatrix in vitro pharmacology data”.

Key:
[1] = molecular target: T1, Angiotensin-converting enzyme (Oryctolagus cuniculus, UniProt P12822); assay type: tissue-based, Lung;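 also: enzymatic inhibition of angiotensin-converting enzyme measured with FAPGG as the substrate; in other assays of this panel Not Active means under 50% inhibition at 10 µM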
T1 sequence (P12822 whole entry): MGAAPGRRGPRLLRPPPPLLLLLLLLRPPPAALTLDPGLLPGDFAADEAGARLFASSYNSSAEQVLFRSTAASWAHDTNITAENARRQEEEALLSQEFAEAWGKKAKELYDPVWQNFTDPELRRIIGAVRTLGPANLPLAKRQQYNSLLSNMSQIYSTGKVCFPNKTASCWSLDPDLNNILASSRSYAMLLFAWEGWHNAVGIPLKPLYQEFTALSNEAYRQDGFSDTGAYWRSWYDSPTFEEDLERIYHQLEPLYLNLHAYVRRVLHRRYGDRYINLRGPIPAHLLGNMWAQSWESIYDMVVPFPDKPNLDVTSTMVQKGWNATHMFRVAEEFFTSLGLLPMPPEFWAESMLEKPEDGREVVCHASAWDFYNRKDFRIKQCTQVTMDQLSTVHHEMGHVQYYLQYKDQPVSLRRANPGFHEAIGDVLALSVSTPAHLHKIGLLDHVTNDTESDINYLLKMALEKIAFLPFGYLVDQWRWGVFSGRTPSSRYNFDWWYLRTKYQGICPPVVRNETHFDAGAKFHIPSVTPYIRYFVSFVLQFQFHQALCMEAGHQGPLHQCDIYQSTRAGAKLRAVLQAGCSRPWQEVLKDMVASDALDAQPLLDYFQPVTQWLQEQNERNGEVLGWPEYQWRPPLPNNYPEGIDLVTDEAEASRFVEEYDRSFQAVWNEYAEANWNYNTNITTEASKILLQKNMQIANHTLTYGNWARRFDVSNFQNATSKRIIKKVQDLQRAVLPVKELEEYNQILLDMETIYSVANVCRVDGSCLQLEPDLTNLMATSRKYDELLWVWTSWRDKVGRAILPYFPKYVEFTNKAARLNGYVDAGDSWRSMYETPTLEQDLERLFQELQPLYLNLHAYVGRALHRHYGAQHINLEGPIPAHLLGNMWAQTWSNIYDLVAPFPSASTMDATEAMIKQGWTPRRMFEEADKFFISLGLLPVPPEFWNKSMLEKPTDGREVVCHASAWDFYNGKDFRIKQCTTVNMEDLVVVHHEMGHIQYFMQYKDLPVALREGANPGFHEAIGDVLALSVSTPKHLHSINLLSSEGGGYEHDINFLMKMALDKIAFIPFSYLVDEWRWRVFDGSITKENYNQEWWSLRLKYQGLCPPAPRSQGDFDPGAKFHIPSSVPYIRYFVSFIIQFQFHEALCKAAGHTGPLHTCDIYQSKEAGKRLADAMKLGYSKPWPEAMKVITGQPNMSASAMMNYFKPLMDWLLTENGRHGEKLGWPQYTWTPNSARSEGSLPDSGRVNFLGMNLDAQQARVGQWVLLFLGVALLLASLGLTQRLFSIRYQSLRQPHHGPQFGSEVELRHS

[2] = molecular target: T2, 3-hydroxy-3-methylglutaryl-coenzyme A reductase (Homo sapiens, UniProt P04035); set-up: species or system Escherichia coli;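 also: enzyme inhibition assay of HMG-CoA reductase using radiolabeled [14C]HMG-CoA as substrate; in other assays of this panel Not Active means under 50% inhibition at 10 µM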
T2 sequence (P04035 whole entry): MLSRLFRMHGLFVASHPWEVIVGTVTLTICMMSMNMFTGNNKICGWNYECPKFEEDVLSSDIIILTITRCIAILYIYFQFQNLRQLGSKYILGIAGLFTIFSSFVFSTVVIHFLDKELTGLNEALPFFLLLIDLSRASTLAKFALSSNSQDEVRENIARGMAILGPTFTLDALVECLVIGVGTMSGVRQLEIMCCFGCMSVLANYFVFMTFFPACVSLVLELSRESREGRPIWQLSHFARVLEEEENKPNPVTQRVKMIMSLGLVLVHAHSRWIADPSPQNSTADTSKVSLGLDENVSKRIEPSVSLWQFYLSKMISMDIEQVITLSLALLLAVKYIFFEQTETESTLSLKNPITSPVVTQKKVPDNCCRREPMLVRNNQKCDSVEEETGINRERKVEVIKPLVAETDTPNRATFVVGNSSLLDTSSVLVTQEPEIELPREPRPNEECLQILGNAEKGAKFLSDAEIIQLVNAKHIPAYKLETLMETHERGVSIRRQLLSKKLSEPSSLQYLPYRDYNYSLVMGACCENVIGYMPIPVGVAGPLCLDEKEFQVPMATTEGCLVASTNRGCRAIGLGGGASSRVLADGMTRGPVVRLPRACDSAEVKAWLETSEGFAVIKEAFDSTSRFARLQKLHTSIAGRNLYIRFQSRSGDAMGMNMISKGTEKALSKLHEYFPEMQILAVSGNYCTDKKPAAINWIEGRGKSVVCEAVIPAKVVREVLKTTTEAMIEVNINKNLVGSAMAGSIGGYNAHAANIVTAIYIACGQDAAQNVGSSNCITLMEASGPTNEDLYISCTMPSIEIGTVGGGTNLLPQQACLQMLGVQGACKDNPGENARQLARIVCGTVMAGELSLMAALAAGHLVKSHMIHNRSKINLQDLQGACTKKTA

[3] = molecular target: Estrogen receptor beta (Homo sapiens, UniProt Q92731); conditions: sf9; also: in other assays of this panel Not Active means under 50% inhibition at 10 µM
[4] = molecular target: Beta-3 adrenergic receptor (Homo sapiens, UniProt P13945); test: DRUGMATRIX: Adrenergic beta3 radioligand binding (ligand: [125I] Cyanopindolol); assay type: cell membranes, HEK293, Membrane; conditions: hek293; Not Active = under 50% inhibition at 10 µM
[5] = molecular target: Tyrosine-protein kinase Fyn (Homo sapiens, UniProt P06241); test: biochemical; assay type: cell-based, Insect cells; conditions: insect cells;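 also: enzymatic inhibition of Fyn kinase activity measured with Poly(Glu:Tyr) as the phosphorylation substrate; in other assays of this panel Not Active means under 50% inhibition at 10 µM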
[6] = DRUGMATRIX: GABAA, Chloride Channel, TBOB radioligand binding (ligand: [3H] TBOB); assay type: cell membranes, Rattus norvegicus, Wistar, Cerebral cortex, Membrane; conditions: Not Active = under 50% inhibition at 10 µM
[7] = DRUGMATRIX: Purinergic P2X radioligand binding (ligand: [3H] alpha, beta-Methylene-ATP); assay type: cell membranes, Oryctolagus cuniculus, New Zealand albino, Urinary bladder, Membrane; conditions: Not Active = under 50% inhibition at 10 µM

Tyrosine-protein kinase Fyn, sequence (P06241 whole entry): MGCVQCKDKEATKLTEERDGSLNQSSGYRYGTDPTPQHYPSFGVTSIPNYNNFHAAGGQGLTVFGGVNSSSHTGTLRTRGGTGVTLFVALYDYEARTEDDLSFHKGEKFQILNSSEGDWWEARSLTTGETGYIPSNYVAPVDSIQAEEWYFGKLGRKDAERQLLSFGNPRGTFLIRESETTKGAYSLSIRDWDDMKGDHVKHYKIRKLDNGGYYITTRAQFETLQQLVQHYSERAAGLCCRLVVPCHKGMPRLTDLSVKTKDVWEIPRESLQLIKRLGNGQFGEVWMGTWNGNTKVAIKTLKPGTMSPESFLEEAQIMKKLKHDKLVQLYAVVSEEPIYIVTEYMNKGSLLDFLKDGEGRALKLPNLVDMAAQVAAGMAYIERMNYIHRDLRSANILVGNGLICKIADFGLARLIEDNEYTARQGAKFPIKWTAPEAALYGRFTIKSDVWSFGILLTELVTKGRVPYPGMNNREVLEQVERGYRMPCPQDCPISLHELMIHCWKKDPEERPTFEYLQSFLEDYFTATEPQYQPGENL
Beta-3 adrenergic receptor, sequence (P13945 whole entry): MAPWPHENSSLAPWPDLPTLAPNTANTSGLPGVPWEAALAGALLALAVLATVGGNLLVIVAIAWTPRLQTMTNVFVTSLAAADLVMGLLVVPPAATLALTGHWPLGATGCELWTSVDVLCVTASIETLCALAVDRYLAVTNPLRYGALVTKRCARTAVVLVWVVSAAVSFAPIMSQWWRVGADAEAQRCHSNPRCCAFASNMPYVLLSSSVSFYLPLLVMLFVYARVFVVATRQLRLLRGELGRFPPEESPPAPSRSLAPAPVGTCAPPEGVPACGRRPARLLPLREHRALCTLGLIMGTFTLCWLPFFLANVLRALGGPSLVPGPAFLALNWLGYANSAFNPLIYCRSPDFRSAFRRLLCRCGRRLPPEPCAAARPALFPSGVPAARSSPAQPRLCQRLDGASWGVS
Estrogen receptor beta, sequence (Q92731 whole entry): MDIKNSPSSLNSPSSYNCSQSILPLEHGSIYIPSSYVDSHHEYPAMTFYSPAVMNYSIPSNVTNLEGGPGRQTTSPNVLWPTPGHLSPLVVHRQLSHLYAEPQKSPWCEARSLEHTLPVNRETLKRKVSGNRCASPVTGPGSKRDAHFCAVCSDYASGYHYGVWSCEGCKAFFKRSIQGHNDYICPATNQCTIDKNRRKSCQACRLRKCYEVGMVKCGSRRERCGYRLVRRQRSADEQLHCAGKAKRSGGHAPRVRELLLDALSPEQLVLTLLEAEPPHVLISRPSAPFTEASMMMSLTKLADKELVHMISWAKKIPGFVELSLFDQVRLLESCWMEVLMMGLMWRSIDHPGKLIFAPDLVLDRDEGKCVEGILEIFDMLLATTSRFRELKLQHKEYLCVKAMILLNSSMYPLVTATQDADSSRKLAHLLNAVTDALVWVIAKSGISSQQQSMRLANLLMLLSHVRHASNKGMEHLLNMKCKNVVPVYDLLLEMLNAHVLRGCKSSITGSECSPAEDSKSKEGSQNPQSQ

Row | Sequence | IC50 [1] | Ki [1] | IC50 [2] | Ki [2] | IC50 [3] | Ki [3] | IC50 [4] | Ki [4] | IC50 [5] | Ki [5] | IC50 [6] | Ki [6] | IC50 [7] | Ki [7] | IC50 ([5]; read-out: IC50)
1 | GENTAMICIN | Not Active | Not Active | Not Active | Not Active | Not Active | Not Active | Not Active | Not Active | Not Active | Not Active | Not Active | Not Active | Not Active | Not Active | –
2 | GRAMICIDIN | Not Active | Not Active | Not Active | Not Active | Not Active | Not Active | Not Active | Not Active | – | – | Not Active | Not Active | Not Active | Not Active | 3.33 µM
3 | NYSTATIN | Not Active | Not Active | Not Active | Not Active | Not Active | Not Active | Not Active | Not Active | Not Active | Not Active | Not Active | Not Active | Not Active | Not Active | –
